Source: patent US6620588B1, “Method of identifying inhibitors of topoisomerase DNA religation” (priority 2000, dated 2003)
Where two headings read alike, the source gives them in different places.

Columns and labels:
[1] = system: MCV-TOP; experiment: Microtiter plate religation assay for MCV topoisomerase; format: biochemical, molluscum contagiosum virus
[2] = biological target: T1, EU-TOPO (Bos taurus, UniProt F1MN93); format: biochemical, mammalian; conditions: for IC50: read-out: IC50, inhibition of religation by EU-TOPO; for dependence of EU-TOPO inhibition on the base 3′ of the scissile phosphate: EU TG+P compared with EU TA+P substrate
T1 construct: purchased Gibco-BRL
T1 sequence (F1MN93 entry or part of it): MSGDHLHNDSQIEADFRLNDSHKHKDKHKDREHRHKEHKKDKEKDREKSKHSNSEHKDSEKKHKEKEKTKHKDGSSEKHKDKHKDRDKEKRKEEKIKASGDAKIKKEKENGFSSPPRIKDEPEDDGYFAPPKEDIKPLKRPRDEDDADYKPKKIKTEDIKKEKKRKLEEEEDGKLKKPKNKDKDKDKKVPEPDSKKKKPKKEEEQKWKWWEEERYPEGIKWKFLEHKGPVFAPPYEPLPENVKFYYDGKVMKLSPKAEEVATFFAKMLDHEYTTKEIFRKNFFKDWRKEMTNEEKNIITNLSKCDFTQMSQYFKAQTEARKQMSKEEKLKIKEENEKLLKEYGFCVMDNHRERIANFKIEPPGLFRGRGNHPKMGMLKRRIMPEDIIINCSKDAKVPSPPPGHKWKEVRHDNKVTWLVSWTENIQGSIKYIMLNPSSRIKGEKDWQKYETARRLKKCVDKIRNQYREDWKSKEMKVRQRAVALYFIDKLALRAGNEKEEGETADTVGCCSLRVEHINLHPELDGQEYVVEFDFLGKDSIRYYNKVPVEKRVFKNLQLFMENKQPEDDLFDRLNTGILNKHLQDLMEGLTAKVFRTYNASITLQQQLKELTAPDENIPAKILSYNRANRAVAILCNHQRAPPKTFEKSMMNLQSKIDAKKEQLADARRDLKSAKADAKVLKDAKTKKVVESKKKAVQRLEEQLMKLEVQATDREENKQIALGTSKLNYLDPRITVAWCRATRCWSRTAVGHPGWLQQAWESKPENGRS
Description: The DNA substrate was designed to contain a preferred site for topoisomerase IB action identified in Tetrahymena DNA (A. H. Andersen, E. Gocke, B. J. Bonven, O. F. Nielsen and O. Westergaard. 1985. Topoisomerase I has a strong binding preference for a conserved hexadecameric sequence in the promoter region of the rRNA gene from Tetrahymena pyriformis. Nuc. Acids Res. 13, 1543-1556; B. J. Bonven, E. Bocke and O. Westergaard. 1985. A High Affinity Topoisomerase I Binding Sequence is Clustered at DNase I Hypersensitive Sites in Tetrahymena R-Chromatin. Cell 41, 541-551).
Two orders of addition were compared. Reactions were carried out in which enzyme was preincubated with inhibitor before addition of DNA substrate (FIG. 5, “complete”), which would reveal inhibition at any step in the reaction pathway. Reactions were also carried out in which covalent complexes were formed, then inhibitor added, followed by the religation strand (FIG. 5, “religation”). The latter order of addition tested inhibition of the religation step only.
For EU-TOPO, two different substrate DNAs were tested, containing TA or TG as the bases flanking the scissile phosphate. […] 1998. Molecular Modeling Studies of the DNA-Topoisomerase I Ternary Cleavable Complex with Camptothecin. J. Med. Chem. 41, 2216-2226), so such effects were sought to be discriminated using the microtiter assay.
Standard reaction mixture for assaying EU-TOPO contains 2.5 units EU-TOPO, 2 nM substrate oligonucleotide, 20 mM Tris-Cl (pH 8.0), 72 mM KCl, 5 mM MgCl2, 5 mM DTT and 10% DMSO. EU-TOPO was obtained from Gibco-BRL. The EU-TOPO suicide substrate was based on an optimal sequence found in a Tetrahymena rRNA gene (see FIG. 2B) (A. H. Andersen, E. Gocke, B. J. Bonven, O. F. Nielsen and O. Westergaard. 1985. Topoisomerase I has a strong binding preference for a conserved hexadecameric sequence in the promoter region of the rRNA gene from Tetrahymena pyriformis. Nuc. Acids Res. 13, 1543-1556; B. J. Bonven, E. Bocke and O. Westergaard. 1985. A High Affinity Topoisomerase I Binding Sequence is Clustered at DNase I Hypersensitive Sites in Tetrahymena R-Chromatin. Cell 41, 541-551).
After the topoisomerase reactions were completed, mixtures were adjusted to 20 mM Tris-Cl (pH 8.0), 400 mM NaCl, 10 mM EDTA, and 0.1 mg/ml sonicated salmon sperm DNA in a final volume of 100 μl. 400 mM NaCl was omitted in EU-TOPO assay. The samples were added to avidin-coupled microtiter wells (Boehringer Mannheim), which were then gently agitated at room temperature for 1 hr. Unbound DNA was removed by 3 washes (200 μl, 5 min each) with 30 mM NaOH, 200 mM NaCl, 1 mM EDTA. Bound DNA was then adjusted to 10 mM Tris-Cl (pH 8.0) and 1 mM EDTA. The relative topoisomerase activity was determined using an anti-digoxigenin ELISA. Anti-digoxigenin-peroxidase Fab fragments (0.01 units, Pierce or Boehringer Mannheim) were added into wells and incubated for 1 hr at 37° C. Unbound Anti-digoxigenin peroxidase Fab fragments were removed by 5 washes (300 μl) with PBS containing 0.1% Tween 20. Bound DNA was then incubated with 200 μl of 3,3′-5,5′-tetramethylbenzidine (TMB) solution (Boehringer Mannheim) until sufficient blue product accumulated. The reaction was terminated by adding 100 μl of 1 M sulfuric acid. The resulting yellow color was quantitated at 450 nm.

Compound | effect on MCV-TOP ([1]; in the concentration range of the EU-TOPO IC50s (nanomolar)) | IC50 ([2]; EU TA+P substrate (A/T base pair 3′ of the point of cleavage)) [nM] | dependence of EU-TOPO inhibition on the base 3′ of the scissile phosphate [2] | IC50 ([2]; EU TG+P substrate (G/C base pair 3′ of the point of cleavage)) [nM] | inhibition of MCV-TOP, religation step ([1]; inhibitor added after covalent complex formation, FIG. 5A) | inhibition of MCV-TOP, complete reaction ([1]; inhibitor added to enzyme before DNA substrate, FIG. 5A) | inhibition of EU-TOPO ([2]; FIGS. 5B and 5C) | inhibition of EU-TOPO, complete reaction compared with religation ([2]; two orders of addition) | activity against MCV-TOP ([1]; FIG. 5A)
(−)-epigallocatechin 3-O-gallate [EGCG] | no effect | 500 | far more inhibitory on the DNA substrate containing a G/C base pair 3′ of the point of cleavage | 26 | – | – | – | – | –
Coumermycin A1 | – | – | not sensitive | – | not religation | inhibit the complete reaction | inhibited | comparable | –
CC[C@@]1(O)C(=O)OCc2c1cc1n(c2=O)Cc2cc3ccccc3nc2-1 [Camptothecin] | – | – | more efficient when the 3′ base was G | – | – | – | – | – | not active
